Several values for one entry are separate records, joined by “and”; a condition that tells them apart may be missing. Identical values can stand only once. Like-named read-outs stand apart in the source and are kept apart here.
Experiments:
[1] = test system: MH-22A (mouse hepatocarcinoma); assay: MTT cytotoxicity assay, MH-22A; assay type: cell-based; conditions: for IC50: Mus musculus, read-out: IC50 (µg/mL) MH-22A
Procedure: The evaluation of the in vitro cytotoxicity (IC50, half maximal inhibitory concentration) of the abovementioned compounds and their structural derivatives was assessed using the standard colorimetric 3-(4,5-dimethylthiazol-2-yl)-2,5-diphenyltetrazolium bromide (MTT) assay on two monolayer tumour cell lines, namely HT-1080 (human connective tissue fibrosarcoma) and MH-22A (mouse hepatocarcinoma). Additionally, the impact of the compound on non-cancerous “normal” cells—mouse fibroblasts (NIH3T3)—was estimated in order to measure the basal toxicity (LD50, median lethal dose). The obtained results were used for investigation of the structure–activity relationships and exploration of the effect of substituents on cellular response and toxicity. The estimated LD50 gives information regarding the compound properties and could potentially be used to select promising compounds by providing a starting dose for in vivo experiments.
The HT-1080 (human connective tissue fibrosarcoma, ATCC® CCL-121™), MH-22A (mouse hepatocarcinoma, ECACC Cat. No. 96121721), A-549 (human lung carcinoma, ATCC® CCL-185™), NIH3T3 (Swiss Albino mouse embryo fibroblast, ECACC Cat. No. 93061524), Hek293 (human embryonic kidney, ATCC® CRL-1573™), BHK-21 (Syrian hamster kidney, ATCC® CCL-10™), A-431 (human epidermoid carcinoma, ATCC® CRL-1555™), Saos-2 (human osteosarcoma, ATCC® HTB-85™), HeLa (human epitheloid cervix carcinoma, ATCC® CCL-2™), U937 (human myeloid leukaemia, ATCC® CRL-1593.2™), C6 (rat glioma, ATCC® CCL-107™), and B16-F10 (murine melanoma, ATCC® CRL-6475™) cell lines were obtained from the American Type Culture Collection (ATCC) and European Collection of Authenticated Cell Cultures (ECACC).
HT-1080, MH-22A, A-549, NIH3T3, BHK-21, A-431, HeLa, and B16-F10 cells were cultured in Dulbecco’s Modified Eagle’s Medium (DMEM) with 2 mM glutamine and 10% foetal bovine serum (FBS). Hek293 cells were cultured in Eagle’s Minimum Essential Medium with 10% foetal bovine serum. U937 cells were cultured in RPMI-1640 Medium with 2 mM glutamine and 10% foetal bovine serum. C6 cells were cultured in Ham’s F12 Medium with 2 mM glutamine and 10% foetal bovine serum. Saos-2 cells were cultured in McCoy’s 5a Medium with 2 mM glutamine and 10% foetal bovine serum. The cells were incubated at 37 °C with 5% CO2, 95% air, and complete humidity. Once ~90% confluence was reached, they were detached using 0.05% trypsin/EDTA and counted. The cells were plated at optimally determined densities for the logarithmic phase of growth. These cells were then suspended at a concentration of 4000 cells/well for HT-1080, MH-22A, A-549, NIH3T3, BHK-21, A-431, HeLa, B16-F10, Hek293, and Saos-2 cells and a concentration of 9000 cells/well for U937, C6, Hek293, and GM08402 cells and added onto a 96-well plate. For background absorption, some wells remained cell free, i.e., as a blank control. Cells were incubated for 72 h at 37 °C and 5% CO2 where they were exposed to a media containing serial dilutions of the investigated compounds (n = 3). Cell viability was measured using the 3-(4,5-dimethylthiazol-2-yl)-2,5-diphenyl-tetrazolium bromide (MTT) assay. In brief, after incubating with compounds, the culture medium was removed and fresh medium with 0.2 mg/mL MTT was added to each well of the plate. After incubation (3 h, 37 °C, 5% CO2), the medium with MTT solution was removed and replaced with 200 µL DMSO and 25 µL Sorenson’s glycine buffer (glycine 0.1 M, NaCl 0.1 M, pH: 10.5 with 0.1 M NaOH). The plate was shaken for 15 min at room temperature and the optical density (OD) of the wells was determined using a multichannel spectrophotometer (Thermo Scientific Multiskan EX) at 540 nm. The quantity of the control cells was taken in calculations as 100%. The IC50 value was calculated using the program Graph Pad Prism® 3.0.

[2] = Excitation/emission fluorescence spectra; assay type: physicochemical; conditions: for fluor. max. λ, nm / excitation λ, nm: DMSO solution; for excitation λ, nm: excitation giving maximum fluorescence intensity; for Stokes' shift, nm: DMSO
Procedure: The resonance structures of compounds 6d,e (Figure 2a) show a possibly intramolecular charge transfer between the julolidine moiety and the pyridinium unit. The normalised fluorescence spectra of the tested compounds 6a–e and 7a,b in DMSO solution (Figure 2c) and the fluorescence spectra of compound 6e in various media (Figure 2d) were measured using a spectrophotometer multiplate reader (Infinite M1000). The UV/Vis spectra in DMSO solution of compounds 6a–g (Figure 2b) were reordered with a UV/Vis spectrophotometer, and the fluorescence spectra of compound 6e in EtOH–glycerol mixtures (Figure 2e) were collected with a Spectrofluorometer FS5.
According to the calculations, the excitation occurs at 542 nm and the emission at 765 nm. The obtained theoretical calculation data are in good agreement with the experimental data, where the excitation occurs at 530 nm and the emission at 760 nm (Table 3).
We have also tested whether the characteristics of compound 6e depended upon the viscosity of its surrounding environment. […] It was underlined that water media reduced the fluorescence quantum yields and the lifetime of organic fluorophores by up to threefold. […] In pure glycerol, the maximum value of fluorescence was detected at 645 nm. As the amount of glycerol decreased, the fluorescence intensity of the sample decreased as well. The second fluorescence maximum at 720 nm was observed when the amount of ethanol had reached approximately 50% in the composition.
A concentration of 10 mM stock solution of compounds 6 or 7 was prepared by dissolving the compounds in DMSO. Working solutions were prepared by diluting the 10 mM stock solution of compounds with different solvents to reach the final concentration for the samples: DMSO (compound concentration 0.1 mM); for compound 6e: in glycerol (concentration 0.01 mM), in water (concentration 0.5 mM), in 0.1 M HCl (concentration 0.5 mM), in 0.1 M NaOH (concentration 0.5 mM), or in 1% DMSO/99% water (concentration […]). The fluorescence spectra were measured using a spectrophotometer multiplate reader (Tecan Infinite M1000; Tecan Austria GmbH, Salzburg, Austria). For excitation/emission fluorescence spectra measurements, the following measurement parameters were applied: excitation wavelength from 260 nm to 690 nm with a 10 nm sampling interval and emission wavelength from 300 nm to 840 nm with a 10 nm sampling interval. The fluorescence spectra of compound 6e (concentration 5 mM) in EtOH–glycerol mixtures were measured with an Edinburgh Instruments FS5 Spectrofluorometer (Edinburgh Instruments Ltd., Kirkton Campus, UK). The data were analysed using Microsoft Excel software version 2308.

Compound	IC50 ([1]; 72 h treatment, MTT)	fluor. max. λ, nm [2]	excitation λ, nm [2]	also measured
CCCCCCCCCCCC[n+]1ccc(C=Cc2cc(OC)c(OC)c(OC)c2)cc1.[Br-] [Compound 6a, 4-(3,4,5-trimethoxystyryl)-N-dodecylpyridinium bromide]	0.45 ± 0.08 µg/mL	580 nm	380 nm	times more toxic than 6b in MH-22A ([1]; 6a versus 6b): 2.4 times; times lower cytotoxicity of 6a compared with 6d, MH-22A ([1]; ratio of IC50 values): 8.5 times
CCCCCCCCCCCCCCCC[n+]1ccc(C=Cc2cc(OC)c(OC)c(OC)c2)cc1.[Br-] [Compound 6b]		580 nm	380 nm	IC50 (µg/mL) MH-22A ([1]; 72 h treatment, MTT): 1.08 ± 0.06 µg/mL
CCCCCCCCCCCCCCCC[n+]1ccc(C=CC=Cc2ccc(OC)cc2)cc1.[Br-] [Compound 6c, 1-hexadecyl-4-(4-(4-methoxyphenyl)buta-1,3-dien-1-yl)pyridin-1-ium bromide]	0.13 ± 0.03 µg/mL	760 nm and ~ 760 nm	530 nm	Stokes' shift, nm [2]: 352 nm
CCCCCCCCCCCC[n+]1ccc(C=Cc2cc3c4c(c2)CCCN4CCC3)cc1.[Br-] [Compound 6d, 1-dodecyl-4-(2-(2,3,6,7-tetrahydro-1H,5H-pyrido[3,2,1-ij]quinolin-9-yl)vinyl)pyridin-1-ium bromide]	0.05 ± 0.003 µg/mL	660 nm	530 nm	times higher cytotoxicity towards MH-22A than compound 7a ([1]; 6d versus 7a): 80 times
CCCCCCCCCCCCCCCC[n+]1ccc(C=CC=Cc2cc3c4c(c2)CCCN4CCC3)cc1.[Br-] [Compound 6e, 1-hexadecyl-4-(4-(2,3,6,7-tetrahydro-1H,5H-pyrido[3,2,1-ij]quinolin-9-yl)buta-1,3-dien-1-yl)pyridin-1-ium bromide]	0.4 ± 0.06 µg/mL	760 nm and ~ 760 nm	530 nm	times more toxic to MH-22A than against non-cancerous Hek-293 ([1]; selectivity MH-22A versus Hek-293): 3.75 times; times more cytotoxic to MH-22A than against non-cancerous NIH3T3 ([1]; selectivity MH-22A versus NIH3T3): eight; Stokes' shift, nm [2]: 240 nm; second fluorescence maximum ([2]; EtOH-glycerol mixture, ethanol approximately 50%): 720 nm; fluorescence emission maximum wavelength ([2]; pure glycerol): 645 nm
C(=C\c1cc2c3c(c1)CCCN3CCC2)/c1cc[n+](CCC[n+]2ccc(/C=C/c3cc4c5c(c3)CCCN5CCC4)cc2)cc1 [Compound 7a]		660 nm	530 nm	IC50 ([1]; 72 h): 4 ± 0.3 µg/mL
C(C=Cc1cc2c3c(c1)CCCN3CCC2)=Cc1cc[n+](CCC[n+]2ccc(C=CC=Cc3cc4c5c(c3)CCCN5CCC4)cc2)cc1.[Br-].[Br-] [Compound 7b, 1,1′-(propane-1,3-diyl)bis(4-(4-(2,3,6,7-tetrahydro-1H,5H-pyrido[3,2,1-ij]quinolin-9-yl)buta-1,3-dien-1-yl)pyridin-1-ium) dibromide]	5 ± 0.6 µg/mL	770 nm and ~ 760 nm	530 nm	
